Values after ≈ are worked out from the molar mass of the structure shown.
Assays:
Type in all cases: cell-based
Staphylococcus aureus = test: Zone of inhibition assay, 24 hour minimum inhibitory concentration, Staphylococcus aureus; conditions: Day-Engley neutralizing media
Protocol: (§1) The minimum inhibitory concentrations of ethynyl 4-methylbenzene sulfone, available from Aldrich Chemical Co., and the sulfones prepared in Examples 1-15 were determined against the bacteria Burkholderia cepacia and Staphylococcus aureus by the zone of inhibition assay method common in the art. Burkholderia cepacia and Staphylococcus aureus was contacted with each sulfone for 24 hours in a Day-Engley neutralizing media (Difco Manual, 10th Ed., p. 261-263 (1984). The results are shown in Table 1.

Burkholderia cepacia = test: Zone of inhibition assay, 24 hour minimum inhibitory concentration, Burkholderia cepacia; conditions: Day-Engley neutralizing media
Protocol: as §1

Aspergillus niger = test: Zone of inhibition assay, 5 day minimum inhibitory concentration, Aspergillus niger; conditions: ATCC16404, 120 h; Aspergillus niger ATCC #16404; 5 days; Day-Engley neutralizing media
Protocol: The minimum inhibitory concentrations of ethynyl 4-methylbenzene sulfone and the sulfones prepared in Examples 1-15 were determined against the fungi Aspergillus niger by the zone of inhibition assay method common in the art. A. niger ATCC #16404 was contacted with each sulfone for 5 days in a Day-Engley neutralizing media.

Row | MIC (Staphylococcus aureus) [µg/mL] | MIC (Burkholderia cepacia) [µg/mL] | MIC (Aspergillus niger) [µg/mL] | Compound
1 | 0.3 to 1 (≈ 0.798 to 2.66 µM) | 100 to 300 (≈ 266 to 798 µM) | 30 to 100 (≈ 79.8 to 266 µM) | O=S(=O)(C#CI)c1ccc(OC(F)(F)F)cc1 [Iodoethynyl 4-trifluoromethoxybenzene sulfone]
2 | 10 to 30 (≈ 44.2 to 133 µM) | > 1000 | > 10000 | C#CS(=O)(=O)c1ccc(OC)c(OC)c1 [Ethynyl 3,4-Dimethoxybenzene Sulfone, Ethynyl 3,4-dimethoxybenzene sulfone]
3 | 30 to 100 (≈ 85.2 to 284 µM) | 300 to 1000 (≈ 852 to 2840 µM) | 300 to 1000 (≈ 852 to 2840 µM) | COc1ccc(S(=O)(=O)C#CI)cc1OC [Iodoethynyl 3,4-Dimethoxybenzene Sulfone, Iodoethynyl 3,4-dimethoxybenzene sulfone]
4 | 3 to 10 (≈ 12 to 40 µM) | > 1000 | > 10000 | C#CS(=O)(=O)c1ccc(OC(F)(F)F)cc1 [Ethynyl 4-trifluoromethoxybenzene sulfone]
5 | 3 to 10 (≈ 16.6 to 55.5 µM) | 100 to 300 (≈ 555 to 1660 µM) | 3000 to 10000 (≈ 16600 to 55500 µM) | C#CS(=O)(=O)c1ccc(C)cc1 [Ethynyl 4-Methylbenzene Sulfone, ethynyl 4-methylbenzene sulfone, reference compound]
6 | 0.3 to 1 (≈ 1.03 to 3.42 µM) | 3 to 10 (≈ 10.3 to 34.2 µM) | 300 to 1000 (≈ 1030 to 3420 µM) | O=S(=O)(C#CI)c1ccccc1 [Iodoethynyl Benzene Sulfone, Iodoethynyl benzene sulfone]
7 | 1 to 3 (≈ 2.87 to 8.62 µM) | 300 to 1000 (≈ 862 to 2870 µM) | 100 to 300 (≈ 287 to 862 µM) | CC(C)(C)c1ccc(S(=O)(=O)C#CI)cc1 [Iodoethynyl 4-t-Butylbenzene Sulfone, Iodoethynyl 4-t-butylbenzene sulfone]
8 | 3 to 10 (≈ 15.4 to 51.5 µM) | 300 to 1000 (≈ 1540 to 5150 µM) | 3000 to 10000 (≈ 15400 to 51500 µM) | C#CS(=O)(=O)c1ccc(CC)cc1 [Ethynyl 4-Ethylbenzene Sulfone]
9 | 100 to 300 (≈ 299 to 898 µM) | 300 to 1000 (≈ 898 to 2990 µM) | 100 to 300 (≈ 299 to 898 µM) | Cc1cc(C)c(S(=O)(=O)C#CI)c(C)c1 [Iodoethynyl 2,4,6-trimethylbenzene sulfone]
10 | 0.3 to 1 (≈ 0.937 to 3.12 µM) | 100 to 300 (≈ 312 to 937 µM) | 10 to 30 (≈ 31.2 to 93.7 µM) | CCc1ccc(S(=O)(=O)C#CI)cc1 [Iodoethynyl 4-Ethylbenzene Sulfone, Iodoethynyl 4-ethylbenzene sulfone]
11 | 0.3 to 1 (≈ 0.98 to 3.27 µM) | 0.3 to 1 (≈ 0.98 to 3.27 µM) | 100 to 300 (≈ 327 to 980 µM) | Cc1ccc(S(=O)(=O)C#CI)cc1 [Iodoethynyl 4-Methylbenzene Sulfone, Iodoethynyl 4-methylbenzene sulfone]
12 | 300 to 1000 (≈ 1440 to 4800 µM) | 300 to 1000 (≈ 1440 to 4800 µM) | 3000 to 10000 (≈ 14400 to 48000 µM) | C#CS(=O)(=O)c1c(C)cc(C)cc1C [Ethynyl 2,4,6-Trimethylbenzene Sulfone, Ethynyl 2,4,6-trimethylbenzene sulfone]
13 | 30 to 100 (≈ 135 to 450 µM) | > 1000 | > 10000 | C#CS(=O)(=O)c1ccc(C(C)(C)C)cc1 [Ethynyl 4-t-Butylbenzene Sulfone, Ethynyl 4-t-butylbenzene sulfone]
14 | 1 to 3 (≈ 6.02 to 18.1 µM) | 10 to 30 (≈ 60.2 to 181 µM) | 1000 to 3000 (≈ 6020 to 18100 µM) | C#CS(=O)(=O)c1ccccc1 [Ethynyl Benzene Sulfone, Ethynyl benzene sulfone]
15 | 3 to 10 (≈ 9.31 to 31 µM) | 30 to 100 (≈ 93.1 to 310 µM) | 30 to 100 (≈ 93.1 to 310 µM) | COc1ccc(S(=O)(=O)C#CI)cc1 [Iodoethynyl 4-Methoxybenzene Sulfone, iodoethynyl 4-methoxybenzene sulfone]
16 | 1 to 3 (≈ 5.1 to 15.3 µM) | 30 to 100 (≈ 153 to 510 µM) | 1000 to 3000 (≈ 5100 to 15300 µM) | C#CS(=O)(=O)c1ccc(OC)cc1 [Ethynyl 4-Methoxybenzene Sulfone, ethynyl 4-methoxybenzene sulfone]

— patent US6232503A, “Alkynyl aryl sulfones” (Lonza Inc., priority 1999, dated 2001)
